In patent US20260137701A1, “CHOLESTENOIC ACID (CA) AND A SULFATED DERIVATIVE THEREOF, 3[BETA]-SULFATE-5-CHOLESTENOIC ACID (CA3S), AS ENDOGENOUS EPIGENETIC REGULATORS” (priority 2022, published 2026):

Columns and labels:
[1] = biological target: recombinant DNMT1 (Homo sapiens, UniProt P26358); test: DNMT1 enzyme kinetic (activity) assay, 3H-SAM filter; type: biochemical; settings: FIG. 1B, 0-0.0001 M
Protocol: (§1) The enzyme kinetic studies were carried out by Reaction Biology Company. For the DNMT1 activity assay, the substrate solution, 0.001 mg/ml Poly(dI-dC): Poly(dI-dC) in 50 mM Tris-HCl, pH 7.5, 50 mM NaCl, 5 mM EDTA, 5 mM DTT, 1 mM PMSF, 5% glycerol, 0.01% Brij™35, 1% DMSO was used. For the DNMT3a/3b activity assay, 0.0075 mg/ml Lambda DNA in 50 mM Tris-HCl, pH 7.5, 50 mM NaCl, 5 mM EDTA, 5 mM DTT, 1 mM PMSF, 5% glycerol, 1% DMSO, was used. The indicated DNMT1, DNMT3a and DNMT3b were added to the appropriate substrate solution and gently mixed. Amounts of CA ranging from 5.08E-09 to 0.0001 M in DMSO were added to the reaction mixture by using Acoustic Technology (Echo® 550, LabCyte Inc. Sunnyvale, CA). The mixtures were first incubated for 15 min, then ^3H-SAM was added to the reaction mixture to initiate the reaction, and the mixture was incubated for 60 min at 30° C. Following incubation, the reaction mixture was finally transferred to filter-paper for detection of radioactivity counts.

[2] = biological target: recombinant DNMT3a (Homo sapiens, UniProt Q9Y6K1); test: DNMT3a enzyme kinetic (activity) assay, 3H-SAM filter; type: biochemical; settings: FIG. 1B, 0-0.0001 M
Chain of recombinant DNMT3a (Q9Y6K1 whole entry, looked up): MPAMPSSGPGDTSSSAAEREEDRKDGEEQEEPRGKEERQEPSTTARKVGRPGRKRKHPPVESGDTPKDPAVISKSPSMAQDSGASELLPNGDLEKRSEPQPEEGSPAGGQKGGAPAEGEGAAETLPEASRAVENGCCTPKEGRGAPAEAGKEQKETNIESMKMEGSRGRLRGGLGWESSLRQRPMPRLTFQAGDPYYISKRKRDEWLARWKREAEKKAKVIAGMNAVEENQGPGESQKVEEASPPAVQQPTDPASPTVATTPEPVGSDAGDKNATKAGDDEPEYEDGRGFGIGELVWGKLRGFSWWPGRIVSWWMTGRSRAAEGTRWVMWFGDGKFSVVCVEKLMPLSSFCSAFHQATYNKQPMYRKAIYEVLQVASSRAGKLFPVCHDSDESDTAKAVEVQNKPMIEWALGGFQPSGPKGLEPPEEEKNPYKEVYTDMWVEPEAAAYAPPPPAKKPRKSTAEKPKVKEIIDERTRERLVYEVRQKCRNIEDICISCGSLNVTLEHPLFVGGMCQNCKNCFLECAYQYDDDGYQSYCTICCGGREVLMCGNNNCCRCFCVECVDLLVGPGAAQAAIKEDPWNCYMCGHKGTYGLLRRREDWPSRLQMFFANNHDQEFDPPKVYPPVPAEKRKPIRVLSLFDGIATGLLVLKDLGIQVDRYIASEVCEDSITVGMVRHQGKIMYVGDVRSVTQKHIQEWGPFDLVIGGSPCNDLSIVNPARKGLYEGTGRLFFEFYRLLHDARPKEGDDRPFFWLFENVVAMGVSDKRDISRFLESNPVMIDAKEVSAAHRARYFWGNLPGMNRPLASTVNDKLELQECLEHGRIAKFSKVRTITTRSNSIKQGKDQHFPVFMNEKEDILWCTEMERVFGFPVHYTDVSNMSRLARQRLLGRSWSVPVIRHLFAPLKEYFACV
Protocol: as §1

[3] = system: Hep G2 cells; type: in vitro ADME, human
Source text: Mitochondrial oxysterols, including cholestenoic acid (CA), 25-hydroxycholesterol (25HC), and 27-hydroxycholesterol (27HC), are potent regulators involved in important biological events such as lipid metabolism and inflammatory responses. However, their intracellular catabolic pathways have not been fully explored. In this study, we investigated the metabolic pathways of these oxysterols and their roles in the communication between hepatocytes and macrophages.

[4] = biological target: recombinant DNMT3b (Homo sapiens, UniProt Q9UBC3); test: DNMT3b enzyme kinetic (activity) assay, 3H-SAM filter; type: biochemical; settings: FIG. 1B, 0-0.0001 M
Protocol: as §1

[5] = system: Human THP-1 macrophages; test: LPS induced inflammatory gene expression in macrophages, real-time RT-PCR; type: cell-based; settings: 20 uM CA3S 30 min, then 2 ug/ml LPS 6 hours
Protocol: Human THP-1 were plated in 6 well plates with RPMI 1640 media (10% FBS) and induced to be macrophages by 100 nM PMA for 3 days at 37° C. in a […] incubator. The media was then changed to fresh RPMI 1640 (serum free), the cells were treated with 20 uM CA3S in PG for 30 min, and then the cells were stimulated with 2 ug/ml LPS for 6 hours. Total mRNA was extracted by the Promega SV total RNA isolation system (Promega, Madison, WI, USA) and 1 ug of RNA were converted to cDNA with a Reverse Transcription kit (Qiagen, Hilden, Germany). IL-1A, IL-1B, IL-6, IL-8, COX-2, NFKB and TNFα gene expressions were determined by Real-time RT-PCR that was performed using SYBR Green as the indicator on ABI 7500 Fast Real-Time PCR System (Applied Biosystems, Foster City, CA).

Chain of recombinant DNMT1 (P26358 whole entry): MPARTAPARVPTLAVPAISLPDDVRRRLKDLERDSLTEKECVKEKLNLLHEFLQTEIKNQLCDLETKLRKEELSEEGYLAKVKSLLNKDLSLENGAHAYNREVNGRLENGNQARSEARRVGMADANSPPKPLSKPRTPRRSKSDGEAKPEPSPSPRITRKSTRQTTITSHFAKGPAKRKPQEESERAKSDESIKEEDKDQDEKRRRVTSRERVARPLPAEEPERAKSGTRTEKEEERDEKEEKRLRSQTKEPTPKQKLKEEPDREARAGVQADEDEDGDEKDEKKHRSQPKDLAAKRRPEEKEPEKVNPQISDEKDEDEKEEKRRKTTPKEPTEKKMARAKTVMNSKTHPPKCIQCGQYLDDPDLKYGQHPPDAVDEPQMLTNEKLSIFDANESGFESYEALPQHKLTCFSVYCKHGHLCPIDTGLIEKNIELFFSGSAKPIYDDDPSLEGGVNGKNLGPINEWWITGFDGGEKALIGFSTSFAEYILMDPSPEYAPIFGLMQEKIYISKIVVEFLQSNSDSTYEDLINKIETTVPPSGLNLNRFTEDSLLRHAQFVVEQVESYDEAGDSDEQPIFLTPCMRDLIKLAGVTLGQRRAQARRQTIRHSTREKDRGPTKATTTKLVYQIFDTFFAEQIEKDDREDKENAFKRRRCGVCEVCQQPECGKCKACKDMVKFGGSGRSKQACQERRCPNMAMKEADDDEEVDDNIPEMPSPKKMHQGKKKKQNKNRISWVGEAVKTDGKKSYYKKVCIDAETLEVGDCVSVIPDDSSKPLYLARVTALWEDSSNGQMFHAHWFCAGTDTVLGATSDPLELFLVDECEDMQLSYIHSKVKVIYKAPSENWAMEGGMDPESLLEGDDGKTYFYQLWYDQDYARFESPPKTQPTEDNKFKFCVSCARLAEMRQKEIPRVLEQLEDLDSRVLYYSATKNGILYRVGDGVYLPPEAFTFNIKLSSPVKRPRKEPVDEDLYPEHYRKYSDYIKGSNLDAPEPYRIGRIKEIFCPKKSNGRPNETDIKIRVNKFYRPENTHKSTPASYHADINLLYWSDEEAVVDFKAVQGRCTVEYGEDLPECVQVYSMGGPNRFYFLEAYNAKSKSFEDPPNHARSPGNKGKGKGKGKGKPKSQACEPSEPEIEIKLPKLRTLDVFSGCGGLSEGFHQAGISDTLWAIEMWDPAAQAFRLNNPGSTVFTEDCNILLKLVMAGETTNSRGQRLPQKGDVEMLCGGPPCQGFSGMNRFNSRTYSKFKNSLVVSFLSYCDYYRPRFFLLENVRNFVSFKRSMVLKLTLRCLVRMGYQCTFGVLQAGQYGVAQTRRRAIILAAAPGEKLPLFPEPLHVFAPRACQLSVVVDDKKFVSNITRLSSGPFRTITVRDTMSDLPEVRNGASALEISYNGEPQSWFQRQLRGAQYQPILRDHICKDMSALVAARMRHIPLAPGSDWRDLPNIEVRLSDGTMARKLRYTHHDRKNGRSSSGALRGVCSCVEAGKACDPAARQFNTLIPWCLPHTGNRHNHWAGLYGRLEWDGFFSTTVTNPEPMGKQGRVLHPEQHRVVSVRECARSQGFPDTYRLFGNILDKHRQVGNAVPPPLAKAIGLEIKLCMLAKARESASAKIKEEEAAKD

Structure (SMILES) | effect on DNMT1 enzymatic activity [1] | effect on DNMT3a enzymatic activity [2] | part of formed 25HC3S released into the media [3] | effect on DNMT3b enzymatic activity [4] | part of the compound converted to 27HC3S [3] | part of the compound converted to CA3S [3] | decrease of COX-2 gene expression [5] [fold] | decrease of IL-6 gene expression [5] [fold]
C[C@H](CCCC(C)(C)O)[C@H]1CC[C@H]2[C@@H]3CC=C4C[C@@H](O)CC[C@]4(C)[C@H]3CC[C@]12C [25HC, 25-hydroxycholesterol] | potent activators | do not have any effect | ⅓ | do not have any effect | – | – | – | –
C[C@@H](CO)CCC[C@@H](C)[C@H]1CC[C@H]2[C@@H]3CC=C4C[C@@H](O)CC[C@]4(C)[C@H]3CC[C@]12C [27HC, 27-hydroxycholesterol] | potent activators | do not have any effect | – | do not have any effect | ⅓ | ⅔ | – | –
CC(CCC[C@@H](C)[C@H]1CCC2[C@@H]3CC=C4CC(OS(=O)(=O)O)CC[C@]4(C)C3CC[C@@]21C)C(=O)O (stereo partly drawn) [CA3S, 3 β-hydroxy-5-cholestenoic acid 3-sulfate] | – | – | – | – | – | – | 5 | 6
